From PMC10772347 (Cell Reports Medicine, 2023)

Assays:
[1] = target: NEK7 (Mus musculus, UniProt Q9ES74); assay: CETSA in BMDMs and DARTS in BMDM lysate; format: cell-based
[2] = target: NEK7 (Homo sapiens, UniProt Q8TDX7); assay: DARTS; format: cell-based
Chain of NEK7 (Homo sapiens, UniProt Q8TDX7) (Q8TDX7 whole entry, looked up): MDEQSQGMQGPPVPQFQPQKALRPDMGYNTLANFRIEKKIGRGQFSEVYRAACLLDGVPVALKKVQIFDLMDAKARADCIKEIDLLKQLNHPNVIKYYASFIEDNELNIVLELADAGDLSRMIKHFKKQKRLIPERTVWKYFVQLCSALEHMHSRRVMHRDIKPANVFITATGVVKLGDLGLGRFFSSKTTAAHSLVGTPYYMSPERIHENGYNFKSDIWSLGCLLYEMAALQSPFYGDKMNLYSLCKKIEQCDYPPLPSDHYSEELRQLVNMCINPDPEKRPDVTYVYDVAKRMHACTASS

Chain of NEK7 (Mus musculus, UniProt Q9ES74) (Q9ES74 whole entry): as the sequence (Q8TDX7 whole entry, looked up) above, with P14T, A52S, E150D, M273I, V285I, T286A, S302T counted along it

CN1CCN(c2ccc(C(=O)Nc3n[nH]c4ccc(Cc5cc(F)cc(F)c5)cc34)c(NC3CCOCC3)c2)CC1 [ENB, entrectinib]
CETSA in BMDMs and DARTS in BMDM lysate (200 uM ENB) [1]: ENB significantly enhanced the thermal stability of NEK7 even at higher temperatures compared with the DMSO-treated group | DARTS (pronase) in lysate of HEK293T cells overexpressing WT or mutant NEK7 (200) [2]: R121A, but not I40A mutation, abolished NEK7 binding to ENB (Figure 4D), suggesting that ENB binds to R121 of NEK7
